# Test results reported in patent US6693112B2, “Compounds for enhancing chemotherapy” (The Pennsylvania State University, priority 2000, dated 2004).
# Where two headings read alike, the source gives them in different places.
# Key:
# [1] = system: T24 cells; test: Drug cytotoxicity with or without 10 μM modulator, T24 cells (Table V)
# [2] = system: A498 cells; test: Drug cytotoxicity with or without 10 μM modulator, A498 cells (Table V)
# [3] = system: MCF-7 cells; test: Drug cytotoxicity with or without 10 μM modulator, MCF-7 cells (Table V)
# [4] = system: NCI/ADR cells; test: Drug cytotoxicity with or without 10 μM modulator, NCI/ADR cells (Table V); details: for IC50: read-out: IC50 (EtOH)
# [5] = system: P388/ADR cells; test: Drug cytotoxicity with or without 10 μM modulator, P388/ADR cells (Table V); details: for IC50: read-out: IC50 (EtOH)
# [6] = system: MCF7/VP cells; test: Drug cytotoxicity with or without 10 μM modulator, MCF7/VP (MRP1) cells (Table V); details: for IC50: read-out: IC50 (EtOH)
# [7] = system: MCF-7 cells; test: Cytotoxicity toward drug-sensitive MCF-7 cells (sulforhodamine B binding assay); type: cell-based, human; details: for IC50: 48 hours, * = maximum dose tested (low solubility); for Toxicity: percent of MCF-7 cells killed by 10 μ/ml of the compound
# [8] = target: P-gp (Homo sapiens, UniProt P08183); details: for P-gp antagonism score / Pgp Antagonism: NCI/ADR cells, % survival with compound alone / with compound + 50 nM vinblastine; for P-gp antagonism score: >1.0 = chemosensitization; for p-GP/MRP1: ratio of P-gp and MRP1 antagonism scores
# Sequence of P-gp (P08183 whole entry): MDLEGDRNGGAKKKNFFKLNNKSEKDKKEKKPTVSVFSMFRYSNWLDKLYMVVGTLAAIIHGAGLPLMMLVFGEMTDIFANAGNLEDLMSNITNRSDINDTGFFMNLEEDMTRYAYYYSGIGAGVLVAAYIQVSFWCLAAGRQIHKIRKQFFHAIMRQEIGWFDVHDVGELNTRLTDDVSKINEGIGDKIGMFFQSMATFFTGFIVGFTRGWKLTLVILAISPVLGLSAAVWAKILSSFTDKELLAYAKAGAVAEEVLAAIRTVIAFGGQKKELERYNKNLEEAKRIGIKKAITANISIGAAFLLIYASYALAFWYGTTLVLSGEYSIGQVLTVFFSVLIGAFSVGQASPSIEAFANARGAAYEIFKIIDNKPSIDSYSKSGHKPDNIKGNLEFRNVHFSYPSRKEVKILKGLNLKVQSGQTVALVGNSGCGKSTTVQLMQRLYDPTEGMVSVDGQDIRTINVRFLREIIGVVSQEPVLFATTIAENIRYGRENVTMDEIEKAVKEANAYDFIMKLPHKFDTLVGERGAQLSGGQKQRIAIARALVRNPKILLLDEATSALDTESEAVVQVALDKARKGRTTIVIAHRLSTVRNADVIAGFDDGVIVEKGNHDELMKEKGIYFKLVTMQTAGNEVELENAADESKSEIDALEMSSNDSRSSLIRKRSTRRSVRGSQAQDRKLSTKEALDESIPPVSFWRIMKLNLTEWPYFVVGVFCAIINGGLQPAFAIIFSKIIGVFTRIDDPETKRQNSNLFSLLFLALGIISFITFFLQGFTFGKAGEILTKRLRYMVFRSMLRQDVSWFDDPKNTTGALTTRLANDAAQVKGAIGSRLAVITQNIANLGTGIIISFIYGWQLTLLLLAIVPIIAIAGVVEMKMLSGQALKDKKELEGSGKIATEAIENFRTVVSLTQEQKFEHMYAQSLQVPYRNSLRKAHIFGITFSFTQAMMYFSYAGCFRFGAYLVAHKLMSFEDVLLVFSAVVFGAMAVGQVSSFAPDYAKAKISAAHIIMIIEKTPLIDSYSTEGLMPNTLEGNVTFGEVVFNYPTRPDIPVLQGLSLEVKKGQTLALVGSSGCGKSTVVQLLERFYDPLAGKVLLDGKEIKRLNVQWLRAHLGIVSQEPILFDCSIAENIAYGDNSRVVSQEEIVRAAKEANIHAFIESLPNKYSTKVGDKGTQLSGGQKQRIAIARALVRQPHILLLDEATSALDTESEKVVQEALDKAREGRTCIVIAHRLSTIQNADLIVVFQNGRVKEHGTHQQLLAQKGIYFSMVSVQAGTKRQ
# Method: The percentage of cells that died following treatment was calculated as a percent decrease in sulforhodamine B binding as compared with control cultures. […] Inhibition of P-gp was manifested as the ability of the compound to enhance the cytotoxicity of vinblastine toward NCI/ADR cells. To assess the toxicity of the compounds toward drug-sensitive cells, the effects of the compounds on the growth of drug-sensitive MCF-7 cells were determined using the same methods.
# The P-gp antagonism score was calculated by dividing the percent survival of NCI/ADR cells treated with the compound alone by the percent survival of NCI/ADR cells treated with the compound in the presence of 50 nM vinblastine. Chemosensitization is indicated by a score of more than 1.0.
# The P-gp antagonism score was calculated by dividing the percent survival of NCI/ADR cells treated with […] by the percent survival of NCI/ADR cells treated with the compound in the presence of 50 nM vinblastine.
# [9] = target: T1, MRP (Homo sapiens, UniProt P33527); test: Reversal of MRP-mediated MDR: enhancement of vincristine cytotoxicity toward MCF-7/VP cells; type: cell-based; details: % survival with compound alone / with compound + 1 nM vincristine; for MRP1 antagonism score: >1.0 = chemosensitization
# T1 construct: MCF-7/VP cells, a cell line that expresses MRP; endogenous in cells; host or cells: MCF-7/VP cells
# T1 sequence (P33527 whole entry): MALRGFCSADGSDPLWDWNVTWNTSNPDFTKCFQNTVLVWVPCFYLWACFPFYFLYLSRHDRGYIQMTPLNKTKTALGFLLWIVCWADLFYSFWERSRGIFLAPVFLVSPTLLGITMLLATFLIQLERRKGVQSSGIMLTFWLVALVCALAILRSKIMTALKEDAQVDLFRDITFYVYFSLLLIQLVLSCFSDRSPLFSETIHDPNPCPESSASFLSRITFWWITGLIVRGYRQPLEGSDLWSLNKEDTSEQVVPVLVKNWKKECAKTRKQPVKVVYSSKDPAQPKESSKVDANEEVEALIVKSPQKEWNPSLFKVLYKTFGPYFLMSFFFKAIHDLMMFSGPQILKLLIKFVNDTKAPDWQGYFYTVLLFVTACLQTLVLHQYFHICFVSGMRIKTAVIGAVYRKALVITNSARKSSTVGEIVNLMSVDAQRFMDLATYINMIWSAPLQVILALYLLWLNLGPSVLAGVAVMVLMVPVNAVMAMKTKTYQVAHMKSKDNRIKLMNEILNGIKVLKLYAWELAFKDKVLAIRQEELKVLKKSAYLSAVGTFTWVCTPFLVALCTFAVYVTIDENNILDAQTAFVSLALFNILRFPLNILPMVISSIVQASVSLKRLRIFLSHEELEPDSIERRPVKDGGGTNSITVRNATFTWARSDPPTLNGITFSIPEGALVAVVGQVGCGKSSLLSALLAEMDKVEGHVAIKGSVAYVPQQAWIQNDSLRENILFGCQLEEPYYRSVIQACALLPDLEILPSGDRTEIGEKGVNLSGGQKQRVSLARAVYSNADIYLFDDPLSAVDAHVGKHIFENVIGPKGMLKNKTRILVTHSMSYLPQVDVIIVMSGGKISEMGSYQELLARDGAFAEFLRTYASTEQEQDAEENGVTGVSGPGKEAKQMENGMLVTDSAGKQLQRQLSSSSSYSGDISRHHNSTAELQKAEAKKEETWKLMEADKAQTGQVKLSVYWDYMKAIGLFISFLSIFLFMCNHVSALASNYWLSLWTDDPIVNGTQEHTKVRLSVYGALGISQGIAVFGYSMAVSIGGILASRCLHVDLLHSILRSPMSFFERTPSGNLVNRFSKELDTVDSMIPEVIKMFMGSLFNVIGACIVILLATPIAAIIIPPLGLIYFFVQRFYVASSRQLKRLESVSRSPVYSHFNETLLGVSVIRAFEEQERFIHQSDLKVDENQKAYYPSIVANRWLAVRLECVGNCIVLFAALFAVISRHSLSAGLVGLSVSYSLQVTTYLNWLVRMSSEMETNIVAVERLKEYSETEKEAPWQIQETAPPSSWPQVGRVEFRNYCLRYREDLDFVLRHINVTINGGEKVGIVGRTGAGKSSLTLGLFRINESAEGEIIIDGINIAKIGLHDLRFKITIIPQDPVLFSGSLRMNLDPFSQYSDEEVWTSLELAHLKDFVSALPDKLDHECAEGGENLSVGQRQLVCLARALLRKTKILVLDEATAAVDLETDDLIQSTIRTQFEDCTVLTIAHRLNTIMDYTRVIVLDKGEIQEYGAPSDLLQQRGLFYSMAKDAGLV
# Method: Reversal of MRP-mediated MDR was examined by plating MCF-7/VP cells as described above and exposing the cells to varying concentrations of phenoxymethylquinoxalinone compounds in the absence or presence of 1 nM vincristine for 48 hours. Cell survival was assayed as described above. The percentage of cells that died following treatment was calculated as described above. Inhibition of MRP was manifested as the ability of the compound to enhance the cytotoxicity of vincristine toward MCF-7/VP cells.
# Chemosensitization is indicated by a score greater than 1.0.
# Chemosensitization is indicated by a score greater than 1.0. […]
# [10] = system: NCI/ADR cells; test: Accumulation of [3H]Taxol and [3H]vinblastine by NCI/ADR cells; type: cell-based
# [11] = system: MCF-7 cells; test: Accumulation of [3H]Taxol and [3H]vinblastine by MCF-7 cells; type: cell-based, human
# [12] = system: MCF-7/VP cells; test: Accumulation of [3H]Taxol and [3H]vinblastine by MCF-7/VP cells; type: cell-based
# [13] = Homo sapiens, T-24, read-out: IC50 (EtOH)
# [14] = Homo sapiens, A498, read-out: IC50 (EtOH)
# [15] = Homo sapiens, MCF7, read-out: IC50 (EtOH)
# [16] = MCF-7 cells, concentration required to kill 50% of the cells
# [17] = T24 cells, IC50 in the absence / in the presence of 10 μM of verapamil or Compound 4008
# [18] = A498 cells, IC50 in the absence / in the presence of 10 μM of verapamil or Compound 4008
# [19] = MCF-7 cells, IC50 in the absence / in the presence of 10 μM of verapamil or Compound 4008
# [20] = NCI/ADR cells, IC50 in the absence / in the presence of 10 μM of verapamil or Compound 4008
# [21] = P388/ADR cells, IC50 in the absence / in the presence of 10 μM of verapamil or Compound 4008
# [22] = MCF7/VP (MRP1) cells, IC50 in the absence / in the presence of 10 μM of verapamil or Compound 4008
compound,measurement,setting,value
"CC[C@]1(O)C[C@H]2CN(CCc3c([nH]c4ccccc34)[C@@](C(=O)OC)(c3cc4c(cc3OC)N(C=O)[C@H]3[C@@](O)(C(=O)OC)[C@H](OC(C)=O)[C@]5(CC)C=CCN6CC[C@]43[C@@H]65)C2)C1 [Vincristine, vincristine, reference compound]",IC50,[1]; [13],0.0048 ± 0.0002 µM
same,IC50,[2]; [14],0.062 ± 0.011 µM
same,IC50,[3]; [15],0.0006 ± 0.0001 µM
same,IC50,"[4]; Homo sapiens, NCI/ADR-RES",0.183 ± 0.014 µM
same,IC50,"[5]; Mus musculus, P388/ADR",0.15 ± 0.024 µM
same,IC50,"[6]; Homo sapiens, MCF7-VP",0.0075 ± 0.0011 µM
"CC[C@]1(O)C[C@@H]2CN(CCc3c([nH]c4ccccc34)[C@@](C(=O)OC)(c3cc4c(cc3OC)N(C)[C@H]3[C@@](O)(C(=O)OC)[C@H](OC(C)=O)[C@]5(CC)C=CCN6CC[C@]43[C@@H]65)C2)C1 [Vinblastine, vinblastine, reference compound]",IC50,[1]; [13],0.0013 ± 0.0003 µM
same,IC50,[2]; [14],0.0076 ± 0.0026 µM
same,IC50,[3]; [15],0.0004 ± 0.0001 µM
same,IC50,"[4]; Homo sapiens, NCI/ADR-RES",0.11 ± 0.017 µM
same,IC50,"[5]; Mus musculus, P388/ADR",0.028 ± 0.005 µM
same,IC50,"[6]; Homo sapiens, MCF7-VP",0.0006 ± 0.0001 µM
"COc1cccc2c1C(=O)c1c(O)c3c(c(O)c1C2=O)C[C@@](O)(C(=O)CO)C[C@@H]3O[C@H]1C[C@H](N)[C@H](O)[C@H](C)O1 [Doxorubicin, reference compound]",IC50,"[5]; Mus musculus, P388/ADR",26.7 ± 10.6 µM
"O=c1[nH]cc(F)c(=O)[nH]1 [5-Fluorouracil, 5-fluorouracil, reference compound]",IC50,[1]; [13],77 ± 20 µM
same,IC50,[2]; [14],9 ± 2.1 µM
same,IC50,[3]; [15],49 ± 31 µM
same,IC50,"[4]; Homo sapiens, NCI/ADR-RES",181 ± 84 µM
same,IC50,"[5]; Mus musculus, P388/ADR",0.22 ± 0.04 µM
same,IC50,"[6]; Homo sapiens, MCF7-VP",11 ± 1 µM
"CC(=O)O[C@H]1C(=O)[C@@]2(C)[C@H]([C@H](OC(=O)c3ccccc3)[C@]3(O)C[C@H](OC(=O)[C@H](O)[C@@H](NC(=O)c4ccccc4)c4ccccc4)C(C)=C1C3(C)C)[C@]1(OC(C)=O)CO[C@@H]1C[C@@H]2O [Taxol, reference compound]",IC50,[1]; [13],0.0047 ± 0.0005 µM
same,IC50,[2]; [14],0.049 ± 0.021 µM
same,IC50,[3]; [15],0.0016 ± 0.0003 µM
same,IC50,"[4]; Homo sapiens, NCI/ADR-RES",2.02 ± 0.81 µM
same,IC50,"[5]; Mus musculus, P388/ADR",1.65 ± 0.47 µM
same,IC50,"[6]; Homo sapiens, MCF7-VP",0.0018 ± 0.0004 µM
Cc1cc(OCc2nc3ccccc3n(C)c2=O)ccc1[N+](=O)[O-] [Compound 9],IC50,[7]; [16],> 77 µM
same,P-gp antagonism score,[8],1.6
same,p-GP/MRP1,[8],1.4
same,MRP1 antagonism score,[9],1.1
CC(C)NCC(=O)Nc1c2c(nc3ccccc13)N(C)CC2 [Compound 39],Toxicity,[7],39%
same,Pgp Antagonism,[8],1.8
same,MRP Antagonism,[9],1.4
CN1CCc2c1nc1ccccc1c2NC(=O)C12CC3CC(CC(C3)C1)C2 [Compound 45],Toxicity,[7],29%
same,Pgp Antagonism,[8],4.7
same,MRP Antagonism,[9],0.9
CCN(CC)CC(=O)Nc1c2c(nc3ccccc13)N(Cc1ccccc1)CC2 [Compound 61],Toxicity,[7],14%
same,Pgp Antagonism,[8],14.8
same,MRP Antagonism,[9],0.98
O=C(Cc1ccccc1)Nc1c2c(nc3ccccc13)N(Cc1ccccc1)CC2 [Compound 4008],Toxicity IC50,[7]; [16],5 mg/L
same,Maximum Antagonism,[8],17.1 (3.1)
same,Maximum Antagonism (conc. μg/ml),[8],17.1 (3.1) μg/ml
same,therapeutic index,[8],at least 10 fold
same,accumulation of [3H]Taxol and [3H]vinblastine,[10],increases the accumulation
same,accumulation of [3H]Taxol and [3H]vinblastine,[11],without affecting the accumulation
same,accumulation of [3H]Taxol and [3H]vinblastine,[12],without affecting the accumulation
same,"RI, 5-Fluorouracil",[1]; [17],2.6
same,"RI, Cisplatin",[1]; [17],1.1
same,"RI, Taxol",[1]; [17],1.2
same,"RI, Vinblastine",[1]; [17],3.8
same,"RI, Vincristine",[1]; [17],1.5
same,"RI, 5-Fluorouracil",[2]; [18],0.7
same,"RI, Cisplatin",[2]; [18],0.8
same,"RI, Taxol",[2]; [18],6.8
same,"RI, Vinblastine",[2]; [18],18
same,"RI, Vincristine",[2]; [18],18
same,"RI, 5-Fluorouracil",[3]; [19],1.6
same,"RI, Cisplatin",[3]; [19],0.8
same,"RI, Taxol",[3]; [19],0.9
same,"RI, Vinblastine",[3]; [19],1.8
same,"RI, Vincristine",[3]; [19],0.9
same,"RI, 5-Fluorouracil",[4]; [20],1.0
same,"RI, Cisplatin",[4]; [20],1.2
same,"RI, Taxol",[4]; [20],70
same,"RI, Vinblastine",[4]; [20],35
same,"RI, Vincristine",[4]; [20],18
same,"RI, 5-Fluorouracil",[5]; [21],0.7
same,"RI, Cisplatin",[5]; [21],1.9
same,"RI, Doxorubicin",[5]; [21],200
same,"RI, Taxol",[5]; [21],202
same,"RI, Vinblastine",[5]; [21],63
same,"RI, Vincristine",[5]; [21],30
same,"RI, 5-Fluorouracil",[6]; [22],0.7
same,"RI, Cisplatin",[6]; [22],0.8
same,"RI, Taxol",[6]; [22],0.8
same,"RI, Vinblastine",[6]; [22],1.3
same,"RI, Vincristine",[6]; [22],1.0
same,enhancement of the toxicity of vincristine toward MCF7/VP cells,[6]; MRP1-overexpressing MCF7/VP cells,no effect
Cn1c(=O)c(COc2cccc(Nc3ccccc3)c2)nc2ccccc21 [Compound 14],IC50,[7]; [16],25 µM
same,P-gp antagonism score,[8],1.3
same,p-GP/MRP1,[8],1.5
same,MRP1 antagonism score,[9],0.9
"N.N.[Cl][Pt][Cl] [Cisplatin, cisplatin, reference compound]",IC50,"[1]; read-out: IC50 (EtOH), T24 cells, drug alone, EtOH solvent control, no modulator",6.7 ± 1.1 µM
same,IC50,"[2]; read-out: IC50 (EtOH), A498 cells, drug alone, EtOH solvent control, no modulator",4.6 ± 1 µM
same,IC50,"[3]; read-out: IC50 (EtOH), MCF-7 cells, drug alone, EtOH solvent control, no modulator",16 ± 5 µM
same,IC50,"[4]; NCI/ADR cells, drug alone, EtOH solvent control, no modulator",7 ± 0.9 µM
same,IC50,"[5]; P388/ADR cells, drug alone, EtOH solvent control, no modulator",2.1 ± 0.8 µM
same,IC50,"[6]; MCF7/VP (MRP1) cells, drug alone, EtOH solvent control, no modulator",8.5 ± 2.1 µM
CC(C)NCC(=O)Nc1c2c(nc3ccccc13)N(Cc1ccccc1)CC2 [Compound 59],Toxicity,[7],45%
same,Pgp Antagonism,[8],13.0
same,MRP Antagonism,[9],0.99
CN1CCN(CC(=O)Nc2c3c(nc4ccccc24)N(Cc2ccccc2)CC3)CC1 [Compound 63],Toxicity,[7],21%
same,Pgp Antagonism,[8],7.5
same,MRP Antagonism,[9],1.07
